Measured values as given in US20050233389A1, “Methods and compositions for peptide and protein labeling” (priority 2003, published 2005).

Key:
BirA = BirA (Escherichia coli, UniProt P06709); assay: Measurement of probe ligation kinetics (HPLC); type: biochemical, E. coli; settings: for initial rate for ligation to synthetic AP: 100 μM AP, 30° C.
Experimental: (§1) HPLC assay for probe ligation to synthetic AP. The synthetic acceptor peptide (AP) with sequence […] (SEQ ID NO: 22) was synthesized by the Tufts University Core Facility. […] Following lyophilization, the peptide was redissolved in water, and the concentration was determined from the absorbance at 280 nm using the calculated extinction coefficient of 5690 M^−1cm^−1. Reaction conditions for the probe ligation to the AP were as follows: 50 mM bicine pH 8.3, 5 mM Mg(OAc)2, 4 mM ATP, 100 μM AP, 1-2 μM BirA, and 1 mM probe (either biotin or racemic ketone 1). Reactions were incubated at 30° C. for 1-2 hours, then quenched with addition of 45 mM EDTA. Reactions were analyzed on a reverse-phase HPLC column (Microsorb-MV 300 C18). Biotin ligation reactions were analyzed using a gradient of 10-43% acetonitrile/water with 0.1% TFA over 20 minutes (flow rate 1.0 mL/min); retention times were 8.2 minutes for biotin, 16.3 minutes for the AP, and 17.7 minutes for the AP-biotin conjugate. Ketone 1 ligation reactions were analyzed using a gradient of 10-46% acetonitrile/water with 0.1 % TFA over 25 minutes (flow rate 1.0 mL/min); retention times were 16.4 minutes for ketone 1, 17.9 minutes for the AP, and 22.0 minutes for the AP-ketone 1 conjugate. For MALDI-TOF analysis, the product peak was collected, diluted with matrix solution (saturated α-cyano 4-hydroxycinnamic acid in 50% acetonitrile/water with 0.05% TFA), and spotted onto the sample target. Positive-ion MALDI-TOF data was acquired in reflector mode with external calibration.
Measurement of probe ligation kinetics. For kinetic measurements, the reaction conditions were the same as above except that 0.091 μM BirA was used, and for the ketone ligation reactions, 2 mM of racemic ketone 1 was used. A 400 μL reaction was initiated by addition of BirA and incubated at 30° C. At various timepoints, a 40 μL aliquot was removed and quenched with EDTA. Reactions were analyzed by reverse-phase HPLC as described above. The area ratios of AP and AP-probe conjugate peaks were converted to concentrations of AP-probe conjugate using a calibration curve generated by mixing known ratios of AP and AP-probe conjugate. The concentration of AP-probe conjugate was plotted versus time, and the reported initial rate was the slope of the line fit to the linear region of product synthesis.

wild-type BirA = wild-type BirA (Escherichia coli, UniProt P06709); assay: HPLC assay for probe ligation to synthetic AP; type: biochemical, E. coli; settings: enantiomers separated by chiral HPLC; data not shown
Experimental: as §1, with “For MALDI-TOF analysis, the product peak was collected, diluted with matrix solution (saturated α-cyano 4-hydroxycinnamic acid in 50% acetonitrile/water with 0.05% TFA), and spotted onto the sample target. Positive-ion MALDI-TOF data was acquired in reflector mode with external calibration.” left out

streptavidin = streptavidin (Streptomyces avidinii, UniProt P22629); assay: streptavidin binding to ketone 1; settings: separate experiments; data not shown
streptavidin, sequence (P22629 25-183): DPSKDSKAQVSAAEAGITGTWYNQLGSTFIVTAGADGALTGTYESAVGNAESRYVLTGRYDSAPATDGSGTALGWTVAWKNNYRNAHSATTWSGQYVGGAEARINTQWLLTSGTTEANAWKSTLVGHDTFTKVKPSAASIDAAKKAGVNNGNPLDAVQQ

BirA, sequence (P06709 whole entry): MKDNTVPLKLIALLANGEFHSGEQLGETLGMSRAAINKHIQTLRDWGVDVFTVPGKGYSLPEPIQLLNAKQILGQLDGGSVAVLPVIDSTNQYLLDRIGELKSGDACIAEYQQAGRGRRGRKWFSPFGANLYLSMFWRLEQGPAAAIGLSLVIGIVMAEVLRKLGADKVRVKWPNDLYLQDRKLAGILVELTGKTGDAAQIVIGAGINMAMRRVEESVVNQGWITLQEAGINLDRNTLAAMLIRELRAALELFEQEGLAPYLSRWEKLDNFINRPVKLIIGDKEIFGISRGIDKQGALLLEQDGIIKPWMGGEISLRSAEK
wild-type BirA, sequence (P06709 whole entry): as above

Structure (SMILES): O=C(O)CCCC[C@@H]1SC[C@@H]2NC(=O)N[C@@H]21 [biotin, reference compound]
- conversion until which the ligation rate remained constant (BirA; 0.091 μM BirA): > 50%
- initial rate for ligation to synthetic AP (BirA; 1 mM biotin, 0.091 μM BirA): 0.954 ± 0.018 µM/min

Structure (SMILES): O=C(O)CCCC[C@@H]1SC[C@@H]2CC(=O)C[C@@H]21 [ketone 1]
- enzyme turnovers after which the ligation rate slowed markedly (BirA; 0.091 μM BirA): ~100 enzyme turnovers
- initial rate for ligation to synthetic AP (BirA; 2 mM racemic ketone 1, 0.091 μM BirA): 0.258 ± 0.024 µM/min
- initial ligation rate, fold less than that for biotin ligation (BirA; ketone 1 vs biotin, identical conditions): 3.7 fold
- acceptance of separated enantiomers by BirA (wild-type BirA): Only one enantiomer was accepted
- binding of streptavidin to the probe itself (streptavidin): does not bind
